# Literature values in paper doi:10.1101/2025.05.13.653654v1, “PEPlife2: A Updated Repository of the Half-life of Peptides” (bioRxiv, 2025).
# From the text: Our database includes various chemical modifications aimed at enhancing the stability of peptides or proteins, such as PEGylation, Fc-conjugation, amino acid replacements (e.g., Lys substitutions followed by fatty acid conjugation), D-amino acid substitutions, non-natural amino acid substitutions (e.g., Aib, Sar, pGlu), cyclization, amidation, acetylation, and others.
Substance,Half life,"half-life (approximate values, effect of N-terminal acetylation and C-terminal amidation, matrix not given, curated database entry, ref not given)"
cMPRLRGC [VH445],3.03 h,–
DRVYIHP [Ang(1-7)],–,approximately 9 minutes
CMPRLRGC [VH434],1.16 h,–
